In brackets after ≈: the same amount, converted by molar mass. Several values for one entry are separate records, joined by “and”; a condition that tells them apart may be missing. Equal entries are not always repeated.
Columns and labels:
[1] = system: Akt phosphorylation, a measure of Tie2 activation; experiment: Akt phosphorylation ELISA (PathScan Phospho-Akt1 (Ser473) Sandwich ELISA) in HUVECs; format: cell-based, human; details: 10 minutes
Protocol: (§1) Human umbilical vein endothelial cells (HUVECs) were isolated freshly from human placenta, grown in endothelial growth medium, and used before passage 6. To evaluate the effects of the compounds on phosphorylation of Tie2 and downstream signaling molecules, cells were serum-starved in endothelial basal medium without added growth factors for 3 hours before stimulation. Cells were treated for 10 minutes with vehicle (DMSO), or compounds A, B, C, or D in DMSO. Cells were lysed in RIPA buffer (150 mM NaCl, 1% IGEPAL CA-630, 0.05% sodium deoxycholate, 0.1% SDS, 20 mM Tris-HCl at pH 7.6, 1 mM EDTA, 1 mM NaF, 1 mM sodium orthovanadate, 5 mM benzamidine) plus complete protease inhibitor cocktail tablets. Tie2 was then immunoprecipitated from cell lysates with a mouse monoclonal antibody (clone 33) and probed sequentially with mouse monoclonal anti-phosphotyrosine (clone 4G10) and anti-Tie2 (clone 33). Whole cell lysates were used to quantify phospho-AKT with the PathScan Phospho-Akt1 (Ser473) Sandwich ELISA Kit according to the manufacturer's instructions. Relative AKT phosphorylation in each experiment was quantified by OD450.
FIG. 45 represents data from an ELISA to determine Akt phosphorylation, a measure of Tie2 activation. Consistent with FIG. 44, compound D had the strongest effect on Tie2 activation, as determined by the high levels (OD450=1.2) of relative Akt phosphorylation even at the lowest dose of compound D (1 μg/mL). […] Akt phosphorylation further increased (OD450=0.45) when 10 μg/mL of compound A was used.

[2] = Room temperature aqueous solubility with solubilizing agents; format: physicochemical
From the text: The room temperature aqueous solubility (mg/mL) of the compound (4-{(S)-2[(S)-2-methoxycarbonylamino]-3-phenylpropanamido]-2-[2-(thiophen-2-yl)thiazol-4-yl]ethyl}phenylsulfamic acid) in water, HPβCD, Poloxamer 407, and sulfobutylether-β-cyclodextrin, is provided in TABLE III. Solubility in saline for the test compound is reduced presumably due to the common ion effect. All the solubilizing agents tested provided good improvements in aqueous solubility of the test compound.
The solubility (mg/mL) of the test compound in mixtures of HPβCD and PEG400 is illustrated in TABLE IV. Use of either HPβCD or PEG400 individually provided an increase in solubility. However, addition of PEG400 to a mixture of the test compound and HPβCD caused an erosion of solubility, with solubility being inversely proportional to the amount of PEG400.

Tie2 = Tie2 phosphorylation, immunoprecipitation and western blot in HUVECs; format: cell-based, human; details: HUVECs treated for 10 minutes; anti-phosphotyrosine western blot (FIG. 44)
Protocol: as §1, with “Tie2 was then immunoprecipitated from cell lysates with a mouse monoclonal antibody (clone 33) and probed sequentially with mouse monoclonal anti-phosphotyrosine (clone 4G10) and anti-Tie2 (clone 33).” left out
FIG. 44 is a western blot of Tie2 immunoprecipitated from endothelial cells treated with DMSO control or the indicated compounds (D, C, B, or A), and then sequentially probed with an anti-Tie2 antibody to detect total Tie2 (lower blot) and an anti-phosphotyrosine antibody to detect phosphorylated Tie2 (upper blot). […] An increase in Tie2 phosphorylation compared to the DMSO control was not detected for compounds A, B, and C.

[3] = system: human subjects with visual acuity loss due to diabetic macular edema; experiment: Study of human subjects with diabetic macular edema given the compound subcutaneously, then intravitreal anti-VEGF agent; format: in vivo
Protocol: Described herein is a study of four human subjects with visual acuity loss due to diabetic macular edema (central retinal thickness [CRT] of more than 325 microns and best corrected visual acuity less than 70 letters) that were treated with subcutaneous injections of 5 mg of 4-{(S)-2-[(S)-2-methoxycarbonyl-amino]-3-phenylpropanamido]-2-[2-(thiophen-2-yl)thiazol-4-yl]ethyl}phenylsulfamic acid twice a day for 28 days. […] At any time during the course of the study, investigators could administer additional therapy of intravitreal injection of an anti-VEGF agent, for example, ranibizumab, bevacizumab, and/or aflibercept, if considered by the investigator to be medically necessary. Retinal thickness as measured by ocular coherence tomography and best-corrected visual acuity as measured by a standard vision test (ETDRS) were assessed at regular intervals during the 28 day active treatment phase and through the 2 month post-treatment observation phase, (Screening, Day 1 [baseline], Day 7, Day 14, Day 21, Day 28, Day 42, Day 56 and Day 84). The main efficacy outcomes for the study were change in CRT and visual acuity over time with treatment.
FIG. 47 depicts the results of a study wherein 4 patients received 5 mg of 4-{(S)-2-[(S)-2-methoxycarbonylamino]-3-phenylpropanamido]-2-[2-(thiophen-2-yl)thiazol-4-yl]ethyl}phenylsulfamic acid subcutaneously twice daily for 28 days and subsequently were treated in one or both eyes (7 eyes total) with either ranibizumab (0.3 or 0.5 mg) or aflibercept (2 mg) by intravitreal injection at the discretion of the study investigator.
FIG. 49 depicts the increased visual acuity of a study wherein 4 patients received 5 mg of 4-{(S)-2-[(S)-2-methoxycarbonylamino]-3-phenylpropanamido]-2-[2-(thiophen-2-yl)thiazol-4-yl]ethyl}phenylsulfamic acid subcutaneously twice daily for 28 days, and subsequently were treated with either ranibizumab (0.3 or 0.5 mg) or aflibercept (2 mg) by intravitreal injection at the discretion of the study investigator. FIG. 49 is read as follows. […] The mean change in Visual Acuity was 9 letters, approximately 3 to 5 letters more improvement than seen in the benchmark study of ranibizumab alone depicted in FIG. 48.
FIG. 50 represents the results of a single patient. The eye having the greater Central Foveal Thickness (CFT) was chosen as the study eye. From day 1, the patient was given 5 mg of 4-{(S)-2-[(S)-2-methoxycarbonylamino]-3-phenylpropanamido]-2-[2-(thiophen-2-yl)thiazol-4-yl]ethyl}phenylsulfamic acid subcutaneously twice daily. At week 3 (21 days, indicated by arrow) the fellow eye was treated with 0.5 mg of ranibizumab by injection. At week 6 (42 days, indicated by arrow) the study eye was treated with 0.5 mg of ranibizumab.
FIG. 51 represents the results of a single patient. The eye having the greater CFT was chosen as the Study Eye. The patient from day one was given 5 mg of 4-{(S)-2-[(S)-2-methoxycarbonylamino]-3-phenylpropanamido]-2-[2-(thiophen-2-yl)thiazol-4-yl]ethyl}phenylsulfamic acid subcutaneously twice daily. At week 4 (28 days, indicated by arrow) the fellow eye was rescued with 2 mg of aflibercept. […] At week 6 (42 days, indicated by arrow) the study eye was rescued with 2 mg of aflibercept. […] From onset of the study, a reduction was observed of CFT in the study eye and the fellow eye of approximately 300 μm and 280 μm, respectively.

COC(=O)N[C@@H](Cc1ccccc1)C(=O)N[C@@H](Cc1ccc(NS(=O)(=O)O)cc1)c1csc(-c2cccs2)n1 [Compound D]
relative Akt phosphorylation (OD450) ([1]; 1 μg/mL): 1.2
relative Akt phosphorylation (OD450) ([1]; 3 μg/mL): 3.1
relative Akt phosphorylation (OD450) ([1]; 10 μg/mL): did not increase further
Solubility ([2]; 0% HPβCD, 15% PEG400): 30 mg/mL (≈ 51.1 mM)
Solubility ([2]; 0% HPβCD, 30% PEG400): 68 mg/mL (≈ 116 mM)
Solubility ([2]; 15% HPβCD, 0% PEG400): 59 mg/mL (≈ 101 mM)
Solubility ([2]; 15% HPβCD, 5% PEG400): 57 mg/mL (≈ 97.2 mM)
Solubility ([2]; 15% HPβCD, 10% PEG400): 34 mg/mL (≈ 57.9 mM)
Solubility ([2]; 15% HPβCD, 15% PEG400): 6 mg/mL (≈ 10.2 mM)
Tie2 phosphorylation compared to the DMSO control (Tie2): substantial increase
Central Foveal Reduction, individual patient eyes ([3]; 5 mg sc twice daily 28 days, then ranibizumab or aflibercept intravitreal, 14-28 days post anti-VEGF (FIG. 47), listed as 4-{(S)-2-[(S)-2-methoxycarbonylamino]-3-phenylpropanamido]-2-[2-(thiophen-2-yl)t): 50-100 μm and 150-200 μm and 200-250 μm and 300-350 μm and 350-400 μm and 450-500 μm
improvement of visual acuity ([3]; 5 mg subcutaneously twice a day for 28 days, observed days 28 through 84): Improvement of visual acuity in these subjects was observed
reduction in Central Foveal Thickness relative to ranibizumab injection in the study in FIG. 46 ([3]; compound sc then anti-VEGF versus ranibizumab alone): approximately double
fall in CFT of the fellow eye ([3]; single patient (FIG. 50), 5 mg sc twice daily, fellow eye given 0.5 mg ranibizumab at week 3, by week 4): 350 μm
reduction in CFT in the study eye ([3]; single patient (FIG. 50), day 21 to day 28, after ranibizumab to fellow eye): approximately 250 μm
CFT of the study eye ([3]; single patient (FIG. 50), week 6, before ranibizumab to study eye): approximately 775 μm
CFT of the study eye ([3]; single patient (FIG. 50), week 8): approximately 225 μm
reduction of CFT in the fellow eye from onset of the study ([3]; single patient (FIG. 51)): ~280 μm
